The source of these data is a melting point compilation (Tetko et al.; mined from patent text by program, amines drawn as free bases though some values may be those of a salt).

In general, melting point refers to the temperature, or range, at which the solid turns liquid.

Take `O=C1CCC2(CC1)CC(=O)c1ccccc1C2`: the melting point is 158 to 160 °C.

Take `CCCNC(=O)C1(CCCCc2ccc(NC(=O)c3ccccc3)cc2)c2ccccc2-c2ccccc21`: the melting point was in the range of 171 to 173 °C.

Molecule `O=C(O)C1Cc2c(ncn2Cc2ccccc2)CN1C(=O)C(c1ccccc1)c1ccccc1` (stereo unspecified) returned a melting point of 167 to 169 °C.

Consider `O=C(O)C(=O)c1ccc2c(c1)CCS2`, for which the melting point is 122 to 123 °C.

As to `N#CCC1CN(Cc2ccccc2)CCO1` (stereo unspecified), the melting point stood at 62 °C.

Regarding `CC(C)C(=O)NC[C@H]1CN(c2ccc3c(c2)CCCc2cnoc2-3)C(=O)O1`, the melting point fell in the range of 187 to 193 °C.

`CS(=O)(=O)c1ccc(CCNC(=O)C(N)=O)cc1OC1CCCC1` returned a melting point of 185 to 186 °C.

For the molecule `C#CC1CCC2(CC1)SCC(C(C)(C)C)CS2` (stereo unspecified), the melting point fell in the range of 86 to 87 °C.

The molecule `NS(=O)(=O)c1cccc2c1CC(=O)CC2` came in with a melting point of 173 to 175 °C.

In turn, `COC(c1ccccc1Cl)c1cc(Cl)ccc1-c1c(C(=O)O)cnn1C` (stereo unspecified) registered a melting point of 210 to 213 °C.

`COc1cc(C)c2c(c1)C(=O)CCC2` yielded a melting point of 55 °C.

For `CNC(=S)N1CCc2[nH]cnc2C1`, the melting point turned out to be 228 °C.

The molecule `Oc1c(Cl)cc(NCCCCCCBr)cc1Cl` displayed a melting point of 182 to 183 °C.

`O=c1c(-c2ccccc2)c(-c2ccccc2)oc2cc(OCC3CO3)ccc12` (stereo unspecified) displayed a melting point of 143 to 145 °C.

`c1ccc(CC[C@H]2CN(Cc3ccccc3)CCN2Cc2ccccc2)cc1` yielded a melting point of 86 to 90 °C.

In turn, `O=C(NCc1ccccc1Cl)C1Cc2ccccc2N1S(=O)(=O)c1ccc(-c2cccc(C(F)(F)F)c2)cc1` (stereo unspecified) had a melting point of 142 to 144 °C.

In the case of `Cc1cccc2nc(NC(=O)c3ccc(C4(C(=O)O)CCC4)cc3)cn12`, the melting point is 272 °C.

Molecule `CC(C)CC(NC(=O)C1CCCCC1NC(=O)OCc1ccccc1)C(N)=O` (stereo unspecified) yielded a melting point of 188 to 190 °C.

`CCOc1nn(-c2ccc(C(F)(F)F)cn2)cc1CCCOc1nn(CC)cc1CC(=O)O` gave a melting point of 108 to 109 °C.

The molecule `CCOC(=O)C(=O)Cc1cc(=O)n(Cc2ccc(Cl)cc2)c2ccccc12` showed a melting point of 180 to 182 °C.

Molecule `CCCc1c2cc(C(=O)OCC)oc2cc2c(=O)cc(C(=O)OCC)oc12` had a melting point of 145 to 147 °C.

`CC(=O)NCc1ccc2c(c1)N(C1CCN(CCCc3ccc(F)cc3)CC1)CC2` gave a melting point of 128 to 130 °C.

Molecule `NS(=O)(=O)c1cccc(-c2cn(-c3cc(C(F)(F)F)cc(-c4ccc(C(F)(F)F)cc4)n3)cn2)c1` yielded a melting point of more than 266 °C.

Molecule `CC1(C)c2ccccc2Oc2ncccc21` came in with a melting point of 72 to 73 °C.

Turning to `COC(=O)Nc1nc2cc(S(=O)CC3CC3)ccc2[nH]1` (stereo unspecified), the melting point was in the range of 223 to 224 °C.

In the case of `O=c1[nH]c2cc(C(F)(F)F)ccc2n(CCc2ncc[nH]2)c1=O`, the melting point was more than 250 °C.

On to `O=C1CC(c2ccccc2)Cc2nccc(Cl)c21` (stereo unspecified), for which the melting point lay in the range of 71 to 72 °C.

Turning to `NC(=NCC(F)(F)F)Nc1ccnc(COCCO)n1`, the melting point was in the range of 144 to 146 °C.

As for `N#Cc1cccc2c1OCCN2`, the melting point is 79 to 80 °C.

In turn, `CCN1C(=O)C(C(=O)Nc2cccc(C(=O)Nc3ccc(Cl)cc3)c2)c2cc(C(C)=O)ccc21` (stereo unspecified) yielded a melting point of 119 to 121 °C.

The molecule `CCNC(=O)CCCC1CCN(Cc2cnc3c(C)c(NC(=O)c4ccc(-c5ccc(F)cc5)cc4)ccc3c2)CC1` had a melting point of 217 to 220 °C.

Molecule `C=C(CC)C(=O)c1ccc(OCCCC(=O)O)c(Cl)c1Cl` gave a melting point of 87 to 89 °C.

`COc1cc([N+](=O)[O-])c2nccc(C)c2c1Oc1cccc(C(F)(F)F)c1` showed a melting point of 206 to 208 °C.

In the case of `O=C(O)c1c(OCc2ccccc2)ccc2ccccc12`, the melting point was in the range of 127 to 128 °C.

`O=C1c2ccccc2C(=O)N1[C@@H]1C[C@H](O)[C@@H](O)[C@H]1O` (racemic) registered a melting point of 175 to 176 °C.

In turn, `COc1ccc(S(=O)(=O)N2CCc3cccc(-c4cccs4)c32)cc1` gave a melting point of 128 to 129 °C.

Consider `CC(NC(=O)CNC(=O)c1ccccc1)C(C)(C)C` (stereo unspecified), for which the melting point was in the range of 124 to 126 °C.

On to `O=c1[nH]c2ccc(C=C3c4ccc(F)cc4CCc4cc(F)ccc43)cc2[nH]1`, for which the melting point was determined as 257 °C.

As to `C=Cc1ccc(-c2ccccn2)cc1`, the melting point stood at 19.3 °C.

`CC(C)(C)S(=O)(=O)c1ccccc1NC(=O)N[C@@H](Cc1ccc(NC(=O)c2c(Cl)cncc2Cl)cc1)C(=O)O` yielded a melting point of 228 °C.

`CCOC(=O)c1cc(=O)nc2n1-c1ccc(C)cc1OC2` yielded a melting point of 136 to 137 °C.

Take `CSc1ccc(/C=C2/C(CCN(O)C(N)=O)=C(C)c3ccccc32)cc1`: the melting point lay within 120 to 122 °C.

For `COc1ccccc1N1CCN(CCCNC(=O)c2cccc3c(=O)c(C)c(-c4cccc([N+](=O)[O-])c4)oc23)CC1`, the melting point was 135 to 137 °C.

In the case of `COc1ccc(C2(c3ccc(N(C)C)cc3)OC(=O)c3ccc(N(C)C)cc32)cc1` (stereo unspecified), the melting point is 156 to 161 °C.

The molecule `N#Cc1c(SC(F)(F)F)c(N)n(-c2ccc(C(F)(F)F)cc2)c1Br` displayed a melting point of 152 °C.

On to `COc1ccc(C2=NN(C3CCN(C(=O)NC(C)(C)C)CC3)C(=O)[C@H]3CC=CC[C@@H]23)c2c1OC(C)(C)C2` (relative stereo), for which the melting point was in the range of 145 to 147 °C.

With `O=C(O)CC(=O)Nc1ccccc1C(=O)O`, the melting point lay within 171 to 173 °C.

In turn, `CN(C)CCOc1ccccc1CC(=O)N1C[C@@H]2C(=O)CCC(c3ccccc3)(c3ccccc3)[C@@H]2C1` (racemic) displayed a melting point of 90 °C.

Regarding `CCOC(=O)c1ccc2c(c1)nc(-c1c(Cl)cccc1Cl)n2C`, the melting point was in the range of 164 to 166 °C.

In the case of `CCOC(=O)c1ccc(-c2ccc(O)cc2)cc1`, the melting point lay within 144 to 146 °C.

On to `CCc1nc2c(cnn2CC)c(NC2CCOCC2)c1CNC(=O)c1cc(C)cc(C(=O)NCc2ccc(OC)c(Br)c2)c1`, for which the melting point lay in the range of 123 to 126 °C.

The molecule `CC(=O)NCCN1CCc2ccc3c(c21)CCCO3` had a melting point of 91 to 93 °C.

In turn, `CCc1nc(-c2ccccc2Cl)nn1C` displayed a melting point of 44 °C.

In turn, `O=C(NCCc1ccccc1)C1=C(C(=O)Nc2cc(OC3CCCC3)c(Cl)cc2F)CCCC1` came in with a melting point of 165 to 166 °C.

As for `COC(=O)CCc1oc(-n2cnc3ccccc32)nc1-c1ccc(C(F)(F)F)cc1`, the melting point fell in the range of 129 to 130 °C.

Molecule `COc1c(/C=C/c2cc(/C=C/c3ccc4cc[nH]c4c3)n[nH]2)cccc1OCc1ccccn1` returned a melting point of 109 to 114 °C.

On to `O=C1Nc2ccccc2N(C(=O)CN2CCCCC2CN2CCCC2)c2ccccc21` (stereo unspecified), for which the melting point fell in the range of 199 to 201 °C.

`COc1ccc2ccc(N3C(=O)c4ccccc4C3CC(CCC(C)C)=NO)nc2n1` (stereo unspecified) returned a melting point of 200 °C.

Regarding `CCOC(=O)c1ccc2c(c(C)nn2C)c1C#N`, the melting point lay within 170 to 176 °C.

In turn, `O=C(NC(CS)Cc1ccccc1)N1CCCC1` (single isomer, unassigned; (+)) came in with a melting point of 92 to 94 °C.

The molecule `CCCCOC1C=CC(=O)N1S(=O)(=O)c1ccc(OC)cc1` (stereo unspecified) gave a melting point of 65 to 66 °C.

As for `N=C(Nc1ccc(Cl)cc1)Nc1ncccc1OCc1c(F)cccc1F`, the melting point was in the range of 146 to 148 °C.

With `CCc1cnc2c(c1)C=Cc1cccnc1N2`, the melting point was in the range of 95 to 97 °C.

For the molecule `Nc1nc2c(c(Nc3cccc(F)c3)n1)-c1ccccc1C2`, the melting point was 199 to 200 °C.

In turn, `CCOC(=O)C1=C(O)C(C)(CC)CNC1=O` (stereo unspecified) showed a melting point of 196 to 197 °C.

In turn, `CC(=O)Nc1ccc(C(=O)N2CCN(CCc3ccc(Cl)cc3)CC2)cc1` gave a melting point of 147 to 149 °C.

`CCCCc1nc(SC)c(C(=O)O)n1Cc1ccc(-c2ccccc2S(=O)(=O)NC(=O)NCCC)cc1` came in with a melting point of 109 to 111 °C.

`C#CCN(Cc1cc2c(=O)n(C)c(CN3CCN(CCO)CC3)nc2cc1Cl)c1ccc(C(=O)NCc2cccnc2)cc1` registered a melting point of 115 to 117 °C.

As for `Cc1ccc(N)c2c1CCC2=NNC(=N)N`, the melting point is more than 250 °C.

For the molecule `Cn1nc(SC2c3cc(C#N)ccc3CC(C)(C)C2O)ccc1=O` (stereo unspecified), the melting point was 149 to 151 °C.

In turn, `CCON=C(C)c1ccc2c(c1)ncn2-c1cccc(C2=CCCN(C)C2)c1` had a melting point of 138 to 143 °C.

`c1ccc(OC(Oc2cccc3ccccc23)Oc2cccc3ccccc23)cc1`: the melting point was in the range of 88.5 to 90 °C.

Consider `CC(C)(C)OC(=O)CON1C(=O)c2ccccc2C1=O`, for which the melting point was in the range of 140 to 141 °C.

Turning to `Nc1nc(-c2ccncc2)nc2c1c(Br)nn2C1CCCC1`, the melting point lay within 189 to 191 °C.

In turn, `Cc1cc(SCc2ccc(OCc3ccc(OC(F)(F)F)cc3)cc2)ccc1OCC(=O)O` gave a melting point of 141 to 142 °C.

The molecule `COc1cccc2c1CC(N(CCCc1c[nH]c3ccc(F)cc13)CC1CCC1)CO2` (stereo unspecified) registered a melting point of 115 °C.

`CCN(C(=O)c1ccccc1C(=O)c1ccc(F)cc1)C(C)(C)CNS(=O)(=O)c1ccc(C)cc1` yielded a melting point of 154 to 156 °C.

Regarding `O=[N+]([O-])c1cccnc1Nc1ccc(F)cc1F`, the melting point was found to be 110 °C.

With `C=C(C)C(=O)NCC(=O)Nc1cc(Cl)c(C)c(Cl)c1O`, the melting point fell in the range of 217 to 218 °C.

The molecule `O=C(NCCO)c1cnccn1` showed a melting point of 125 °C.

`COC(=O)CCCCN(CCc1cc(-c2ccc(F)cc2F)ccc1OCc1ccc(-c2ccc(C(F)(F)F)cc2)cc1)Cc1ccc(C(=O)OC)cc1` had a melting point of more than 240 °C.

As for `CC(C)c1nn(-c2ccc(C(F)(F)F)cn2)cc1COc1cc(C=O)n(C)n1`, the melting point fell in the range of 112 to 113 °C.

Consider `O=C(O)c1cc(-c2ccccc2S(=O)(=O)NCCO)c2ccc3c(-c4ccccc4S(=O)(=O)NCCO)cc(C(=O)O)nc3c2n1`, for which the melting point was more than 300 °C.

`COc1ccc(-c2nc(C(F)(F)F)[nH]c2-c2ccc(S(C)(=O)=O)cc2)cc1F` had a melting point of 228 to 234 °C.

Turning to `CCSC1COC(Cn2cncn2)(c2ccc(Cl)cc2Cl)C1` (stereo unspecified), the melting point was 64 °C.

In turn, `O=C(CCC=C(c1ccccc1)c1ccccc1)NCCCCn1ccnc1` returned a melting point of 102 to 103 °C.
